Laboratory results taken from ChEMBL document CHEMBL1201862, “PubChem BioAssay data set” (2004).
Active and inactive are the calls of the source. Cut-off read from the data, not from the text of the source, for most assays here: actives have a measured EC50 and inactives only a lower limit.

Tests used:
HEK293 = test: EBV LMP1 TES2 canonical NF-kB signalling blockers – cell-based, HEK293, luciferase, cherry-pick, dose response (AID 588343); format: functional; conditions: Homo sapiens
[1] = biological target: Luciferin 4-monooxygenase (Photinus pyralis, UniProt P08659); test: Counter Screen for Luciferase-based Assay Positives. [Related pubchem assays: 620, 618, 411 ]
Chain of Luciferin 4-monooxygenase (P08659 whole entry): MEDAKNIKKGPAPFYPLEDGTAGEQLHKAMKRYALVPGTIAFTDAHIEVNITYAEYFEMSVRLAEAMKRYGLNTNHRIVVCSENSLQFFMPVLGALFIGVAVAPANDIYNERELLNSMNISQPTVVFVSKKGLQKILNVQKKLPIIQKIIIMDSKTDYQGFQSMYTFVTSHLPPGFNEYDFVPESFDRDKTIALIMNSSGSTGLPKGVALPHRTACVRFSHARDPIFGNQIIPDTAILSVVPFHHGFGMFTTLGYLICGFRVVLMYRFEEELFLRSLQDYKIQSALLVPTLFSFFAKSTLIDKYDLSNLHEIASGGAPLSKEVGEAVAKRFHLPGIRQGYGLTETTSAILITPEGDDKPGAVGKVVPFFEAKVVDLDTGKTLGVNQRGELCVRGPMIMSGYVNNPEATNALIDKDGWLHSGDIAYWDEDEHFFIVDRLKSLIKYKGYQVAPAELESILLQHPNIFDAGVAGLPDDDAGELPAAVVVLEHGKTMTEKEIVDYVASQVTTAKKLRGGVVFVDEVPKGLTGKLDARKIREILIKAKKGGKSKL

HT-1080 = test: HT1080 cell viability loss – fluorescence readout (AID 620); format: functional, cell-based; conditions: Homo sapiens
[2] = biological target: T1, Neuropeptide Y receptor type 1 (Homo sapiens, UniProt P25929); format: functional;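 note: HEK293 cells with a CNG channel challenged with NPY then isoproterenol; potency as antagonist that reverses NPY suppression of cAMP signal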
T1 sequence (P25929 whole entry): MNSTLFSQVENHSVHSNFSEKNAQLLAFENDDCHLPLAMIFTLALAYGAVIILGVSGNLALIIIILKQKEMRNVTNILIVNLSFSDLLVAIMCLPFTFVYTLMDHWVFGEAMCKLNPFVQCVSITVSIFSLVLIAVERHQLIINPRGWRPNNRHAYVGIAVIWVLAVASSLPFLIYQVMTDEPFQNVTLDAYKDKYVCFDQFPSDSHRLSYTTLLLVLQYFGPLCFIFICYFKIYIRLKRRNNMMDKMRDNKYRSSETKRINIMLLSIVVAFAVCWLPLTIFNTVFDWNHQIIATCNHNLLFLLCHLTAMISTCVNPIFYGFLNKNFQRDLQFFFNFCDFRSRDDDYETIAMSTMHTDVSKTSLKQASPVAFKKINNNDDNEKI

[3] = biological target: T2, Neuropeptide Y receptor type 2 (Homo sapiens, UniProt P49146); format: functional, cell-based;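 note: HEK293 cells expressing the receptor and a CNG channel; stimulus was NPY near EC95 followed by isoproterenol to raise cAMP; antagonist potency measured as restoring cAMP signal that NPY suppresses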
T2 sequence (P49146 whole entry): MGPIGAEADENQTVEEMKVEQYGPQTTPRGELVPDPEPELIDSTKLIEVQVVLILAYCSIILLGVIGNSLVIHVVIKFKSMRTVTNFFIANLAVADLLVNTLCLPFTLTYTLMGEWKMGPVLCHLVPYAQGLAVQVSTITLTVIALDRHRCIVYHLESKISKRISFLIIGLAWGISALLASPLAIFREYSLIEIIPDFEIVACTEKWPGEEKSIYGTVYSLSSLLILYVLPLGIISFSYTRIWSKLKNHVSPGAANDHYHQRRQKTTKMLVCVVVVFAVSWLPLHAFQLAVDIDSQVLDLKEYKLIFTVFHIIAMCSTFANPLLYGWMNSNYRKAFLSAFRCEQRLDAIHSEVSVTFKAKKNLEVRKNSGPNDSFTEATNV

[4] = luciferase reporter signal reduction – luminescence, H4-C neuroglioblastoma cells, dose response (AID 2458); format: functional, cell-based;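 note: H4 neuroglioblastoma cells stably carrying a luciferase reporter gene fusion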
[5] = Luminescence Cell-Based Dose Response HTS to Identify Inhibitors of 5'UTR Stem-Loop Driven Prion Protein mRNA Translation in H4 Neuroglioblastoma Cells. [Related pubchem assays: 1827 (Project Summary), 1813 (Primary HTS)]; format: functional
[6] = alpha-synuclein stem-loop translation blockers – luminescence, H4 neuroglioblastoma cells, dose confirmation, confirmation (AID 2454); format: functional, cell-based;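 note: H4 neuroglioblastoma cells carrying an alpha-synuclein 5'UTR luciferase reporter; potency for inhibition of the luciferase signal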
[7] = HEK-293T viability loss after treatment – luminescence, T-cell screen hits, cytotoxicity control for TCR NF-kB inhibitor project, dose response (AID 489026); format: functional, cell-based;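 note: cells exposed to compound about 14 hours before the viability readout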
[8] = alpha-synuclein stem-loop luciferase translation blockers – H4 neuroglioma cells, luminescence, confirmation (AID 1988); format: functional, cell-based
[9] = biological target: T3, Heat shock factor protein 1 (Mus musculus, UniProt P38532); test: decrease of HSF1-responsive luciferase luminescence – cell-based, NIH3T3, dose retest, confirmation (AID 2382); format: functional;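 note: NIH3T3 fibroblasts with HSF1-driven luciferase reporter stressed by proteasome inhibitor MG132; luminescence from HSF1-driven luciferase expression after 8 hours of MG132 stress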
T3 sequence (P38532 whole entry): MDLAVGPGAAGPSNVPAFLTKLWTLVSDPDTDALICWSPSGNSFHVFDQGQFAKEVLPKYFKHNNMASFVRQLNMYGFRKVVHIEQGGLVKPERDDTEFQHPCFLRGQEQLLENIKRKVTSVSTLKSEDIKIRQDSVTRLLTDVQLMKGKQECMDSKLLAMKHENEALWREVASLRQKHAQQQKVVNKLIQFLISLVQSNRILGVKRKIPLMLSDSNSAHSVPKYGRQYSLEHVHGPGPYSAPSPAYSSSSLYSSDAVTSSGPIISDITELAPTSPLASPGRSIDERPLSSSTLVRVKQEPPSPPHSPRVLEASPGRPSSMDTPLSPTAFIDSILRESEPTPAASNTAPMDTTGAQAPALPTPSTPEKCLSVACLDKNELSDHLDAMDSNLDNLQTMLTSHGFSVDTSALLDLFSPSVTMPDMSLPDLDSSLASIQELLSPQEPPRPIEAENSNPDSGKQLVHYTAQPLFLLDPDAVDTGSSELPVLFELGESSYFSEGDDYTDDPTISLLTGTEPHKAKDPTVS

[10] = luciferase reporter signal suppression in cells – H4 neuroglioma cells, luminescence, dose response (AID 1990); format: functional, cell-based
cells = format: functional, cell-based
[11] = biological target: T4, Rac GTPase-activating protein 1 (Homo sapiens, UniProt Q9H0H5); test: blockers of MgcRacGAP-driven Rac1 GTP hydrolysis – biochemical, ADP Hunter fluorescence, primary and confirmatory, confirmation (AID 624330); format: functional
T4 sequence (Q9H0H5 whole entry): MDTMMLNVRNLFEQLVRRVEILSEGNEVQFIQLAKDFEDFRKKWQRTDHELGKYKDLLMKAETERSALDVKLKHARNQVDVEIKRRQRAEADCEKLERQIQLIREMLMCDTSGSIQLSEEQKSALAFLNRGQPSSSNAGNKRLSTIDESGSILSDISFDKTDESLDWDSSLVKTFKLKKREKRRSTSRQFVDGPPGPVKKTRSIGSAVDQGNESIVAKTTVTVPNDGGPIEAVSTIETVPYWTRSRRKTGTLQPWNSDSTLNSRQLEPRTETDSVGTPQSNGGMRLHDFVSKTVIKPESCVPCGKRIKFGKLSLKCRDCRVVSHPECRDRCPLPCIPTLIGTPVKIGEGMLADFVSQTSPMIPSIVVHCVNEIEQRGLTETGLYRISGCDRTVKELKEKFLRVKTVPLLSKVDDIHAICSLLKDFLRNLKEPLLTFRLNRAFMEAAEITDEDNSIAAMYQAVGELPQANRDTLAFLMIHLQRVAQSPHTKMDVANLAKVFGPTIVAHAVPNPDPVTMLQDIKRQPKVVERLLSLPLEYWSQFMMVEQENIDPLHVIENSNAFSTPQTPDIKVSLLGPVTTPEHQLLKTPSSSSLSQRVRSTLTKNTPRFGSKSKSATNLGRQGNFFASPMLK

Which AC50 (HEK293) does the source give for `O=C(NC1=NCCS1)c1cc2ccccc2o1` here?
Its AC50 is 3.65 µM (active).

And the EC50 [1]?
The EC50 was 59.1 µM (active).

What about the EC50 (HT-1080) of the same compound?
Its EC50 is > 50 µM (not active).

What does the source list for `c1ccc(-c2noc(-c3cccs3)n2)nc1`?
EC50 [1]: > 100 µM (not active); EC50 (HT-1080): > 50 µM (not active)

What does the source list for `CCCCOc1nc2ccccc2c(=O)n1-c1ccccc1`?
IC50 [2]: 13.2 µM (not active); IC50 [3]: 8.15 µM (active)

For `O=[N+]([O-])c1nn(-c2ccc3c(c2)OCCO3)[n+]([O-])c1Nc1ccccc1`, which EC50 [4] is on record?
The EC50 was 0.098 µM (active).

And the EC50 [5]?
Its EC50 is < 0.1 µM (active).

What about the EC50 [6] of the same compound?
The EC50 was 0.09 µM (active).

What about the IC50 [7] of the same compound?
Its IC50 is > 80 µM (inactive).

What about the EC50 [8] of the same compound?
Its EC50 is < 0.1 µM (active).

And the EC50 [9]?
The EC50 was < 0.16 µM (active).

And the EC50 [10]?
The EC50 was < 0.1 µM (active).

What about the EC50 (cells) of the same compound?
Its EC50 is 4.89 µM (active).

For `Cc1ccc(NC(=O)C(=O)NCCOc2ccc(Cl)cc2)c(C)c1`, which IC50 [2] is on record?
Its IC50 is 7.39 µM (active).

What about the IC50 [3] of the same compound?
Its IC50 is 7.41 µM (active).

What does the source list for `CNc1nnc(-c2ccc(N(C)C)cc2)s1`?
IC50 [11]: 99.3 µM (active); EC50 [1]: 2.54 µM (active); EC50 (HT-1080): > 50 µM (not active)
